Data published in ChEMBL document CHEMBL5512655, “Discovery of indolylacryloyl-derived oxacins as novel potential broad-spectrum antibacterial candidates” (Eur J Med Chem, 2024).
Values after ≈ are worked out from the molar mass of the structure shown.

Columns and labels:
Type in all cases: functional
[1] = test system: Pseudomonas aeruginosa; test: Antibacterial activity against Pseudomonas aeruginosa assessed as inhibition of bacterial growth measured after 24 hrs incubation
[2] = test system: Klebsiella pneumoniae; test: Antibacterial activity against Klebsiella pneumonia assessed as inhibition of bacterial growth measured after 24 hrs incubation
[3] = test system: Enterococcus faecalis; test: Antibacterial activity against Enterococcus faecalis assessed as inhibition of bacterial growth measured after 24 hrs incubation
[4] = test system: Acinetobacter baumannii; test: Antibacterial activity against Acinetobacter baumannii assessed as inhibition of bacterial growth measured after 24 hrs incubation
[5] = test system: Staphylococcus aureus; test: Antibacterial activity against Staphylococcus aureus assessed as inhibition of bacterial growth measured after 24 hrs incubation
[6] = test system: Escherichia coli; test: Antibacterial activity against Escherichia coli assessed as inhibition of bacterial growth measured after 24 hrs incubation
[7] = test system: Staphylococcus aureus; test: Antibacterial activity against Staphylococcus aureus ATCC 25923 assessed as inhibition of bacterial growth measured after 24 hrs incubation
[8] = test system: Pseudomonas aeruginosa; test: Antibacterial activity against Pseudomonas aeruginosa ATCC 27853 assessed as inhibition of bacterial growth measured after 24 hrs incubation
[9] = test system: Staphylococcus aureus; test: Antibacterial activity against methicillin-resistant Staphylococcus aureus N315 assessed as inhibition of bacterial growth measured after 24 hrs incubation
[10] = test system: Staphylococcus aureus; test: Antibacterial activity against Staphylococcus aureus ATCC 29213 assessed as inhibition of bacterial growth measured after 24 hrs incubation
[11] = test system: Escherichia coli; test: Antibacterial activity against Escherichia coli ATCC 25922 assessed as inhibition of bacterial growth measured after 24 hrs incubation

SMILES	MIC [1] [µg/mL]	MIC [2] [µg/mL]	MIC [3] [µg/mL]	MIC [4] [µg/mL]	MIC [5] [µg/mL]	MIC [6] [µg/mL]	MIC [7] [µg/mL]	MIC [8] [µg/mL]	MIC [9] [µg/mL]	MIC [10] [µg/mL]	MIC [11] [µg/mL]
CCOC(=O)Cn1cc(/C=C(\C#N)C(=O)N2CCN(c3cc4c(cc3F)c(=O)c(C(=O)O)cn4Cc3ccccc3)CC2)c2ccccc21	256 (≈ 387 µM)	2 (≈ 3.02 µM)	0.25 (≈ 0.378 µM)	4 (≈ 6.05 µM)	256 (≈ 387 µM)	8 (≈ 12.1 µM)	256 (≈ 387 µM)	4 (≈ 6.05 µM)	256 (≈ 387 µM)	256 (≈ 387 µM)	16 (≈ 24.2 µM)
CCn1cc(C(=O)O)c(=O)c2cc(F)c(N3CCN(C(=O)/C(C#N)=C/c4cn(CC5CCCC5)c5ccccc45)CC3)cc21	0.5 (≈ 0.839 µM)	0.5 (≈ 0.839 µM)	8 (≈ 13.4 µM)	16 (≈ 26.9 µM)	16 (≈ 26.9 µM)	4 (≈ 6.72 µM)	1 (≈ 1.68 µM)	1 (≈ 1.68 µM)	32 (≈ 53.7 µM)	2 (≈ 3.36 µM)	1 (≈ 1.68 µM)
CCn1cc(C(=O)O)c(=O)c2cc(F)c(N3CCN(C(=O)/C(C#N)=C/c4cn(CC5CCCCC5)c5ccccc45)CC3)cc21	2 (≈ 3.28 µM)	1 (≈ 1.64 µM)	32 (≈ 52.5 µM)	1 (≈ 1.64 µM)	32 (≈ 52.5 µM)	1 (≈ 1.64 µM)	16 (≈ 26.2 µM)	1 (≈ 1.64 µM)	16 (≈ 26.2 µM)	1 (≈ 1.64 µM)	4 (≈ 6.56 µM)
CCCCCCn1cc(/C=C(\C#N)C(=O)N2CCN(c3cc4c(cc3F)c(=O)c(C(=O)O)cn4CC)CC2)c2ccccc21	16 (≈ 26.8 µM)	1 (≈ 1.67 µM)	32 (≈ 53.5 µM)	16 (≈ 26.8 µM)	0.5 (≈ 0.837 µM)	0.5 (≈ 0.837 µM)	64 (≈ 107 µM)	0.5 (≈ 0.837 µM)	0.5 (≈ 0.837 µM)	4 (≈ 6.69 µM)	2 (≈ 3.35 µM)
CCOC(=O)Cn1cc(/C=C(\C#N)C(=O)N2CCN(c3cc4c(cc3F)c(=O)c(C(=O)O)cn4CC=C(C)C)CC2)c2ccccc21	16 (≈ 25 µM)	1 (≈ 1.56 µM)	0.25 (≈ 0.391 µM)	16 (≈ 25 µM)	16 (≈ 25 µM)	32 (≈ 50 µM)	16 (≈ 25 µM)	16 (≈ 25 µM)	8 (≈ 12.5 µM)	8 (≈ 12.5 µM)	0.5 (≈ 0.782 µM)
CCn1cc(C(=O)O)c(=O)c2cc(F)c(N3CCN(C(=O)/C(C#N)=C/c4cn(CC5CC5)c5ccccc45)CC3)cc21	1 (≈ 1.76 µM)	1 (≈ 1.76 µM)	1 (≈ 1.76 µM)	2 (≈ 3.52 µM)	4 (≈ 7.05 µM)	4 (≈ 7.05 µM)	1 (≈ 1.76 µM)	0.5 (≈ 0.881 µM)	0.5 (≈ 0.881 µM)	0.5 (≈ 0.881 µM)	1 (≈ 1.76 µM)
CCn1cc(C(=O)O)c(=O)c2cc(F)c(N3CCN(C(=O)/C(C#N)=C/c4cn(CC(=O)N5CCOCC5)c5ccccc45)CC3)cc21	1 (≈ 1.56 µM)	1 (≈ 1.56 µM)	1 (≈ 1.56 µM)	0.5 (≈ 0.78 µM)	8 (≈ 12.5 µM)	0.5 (≈ 0.78 µM)	2 (≈ 3.12 µM)	0.25 (≈ 0.39 µM)	2 (≈ 3.12 µM)	4 (≈ 6.24 µM)	0.5 (≈ 0.78 µM)
CCn1cc(C(=O)O)c(=O)c2cc(F)c(N3CCN(C(=O)/C(C#N)=C/c4cn(Cc5ccccc5Cl)c5ccccc45)CC3)cc21	16 (≈ 25.1 µM)	32 (≈ 50.1 µM)	16 (≈ 25.1 µM)	8 (≈ 12.5 µM)	256 (≈ 401 µM)	1 (≈ 1.57 µM)	32 (≈ 50.1 µM)	1 (≈ 1.57 µM)	32 (≈ 50.1 µM)	64 (≈ 100 µM)	0.25 (≈ 0.392 µM)
CCn1cc(C(=O)O)c(=O)c2cc(F)c(N3CCNCC3)cc21 [NORFLOXACIN]	4 (≈ 12.5 µM)	0.5 (≈ 1.57 µM)	0.5 (≈ 1.57 µM)	1 (≈ 3.13 µM)	0.5 (≈ 1.57 µM)	2 (≈ 6.26 µM)	2 (≈ 6.26 µM)	1 (≈ 3.13 µM)	0.5 (≈ 1.57 µM)	1 (≈ 3.13 µM)	0.5 (≈ 1.57 µM)
CCn1cc(C(=O)O)c(=O)c2cc(F)c(N3CCN(C(=O)/C(C#N)=C/c4c[nH]c5cc(C)ccc45)CC3)cc21	0.25 (≈ 0.474 µM)	0.25 (≈ 0.474 µM)	2 (≈ 3.79 µM)	0.25 (≈ 0.474 µM)	0.25 (≈ 0.474 µM)	1 (≈ 1.9 µM)	0.25 (≈ 0.474 µM)	2 (≈ 3.79 µM)	0.25 (≈ 0.474 µM)	1 (≈ 1.9 µM)	0.5 (≈ 0.948 µM)
CCn1cc(C(=O)O)c(=O)c2cc(F)c(N3CCN(C(=O)/C(C#N)=C/c4cn(CCCN5CCOCC5)c5ccccc45)CC3)cc21	0.25 (≈ 0.39 µM)	0.25 (≈ 0.39 µM)	1 (≈ 1.56 µM)	0.5 (≈ 0.78 µM)	2 (≈ 3.12 µM)	1 (≈ 1.56 µM)	0.25 (≈ 0.39 µM)	1 (≈ 1.56 µM)	0.25 (≈ 0.39 µM)	0.25 (≈ 0.39 µM)	1 (≈ 1.56 µM)
CCn1cc(C(=O)O)c(=O)c2cc(F)c(N3CCN(C(=O)/C(C#N)=C/c4cn(Cc5ccc(Cl)c(Cl)c5)c5ccccc45)CC3)cc21	2 (≈ 2.97 µM)	1 (≈ 1.49 µM)	32 (≈ 47.6 µM)	64 (≈ 95.2 µM)	16 (≈ 23.8 µM)	8 (≈ 11.9 µM)	64 (≈ 95.2 µM)	1 (≈ 1.49 µM)	4 (≈ 5.95 µM)	64 (≈ 95.2 µM)	32 (≈ 47.6 µM)
